In US7342033B2 (Vereniging Voor Christelijk Wetenschappelijk Onderwijs, priority 1999, dated 2008):

System: multiple sclerosis patients
Test: Adverse events and tolerability in the same study
Format: in vivo, human
From the text: We selected 9 women and 7 men (aged 30-66 years) with documented progression during the 24 months before inclusion, from a natural history study. Kurtzke's EDSS scores were between 3.0 (inclusive) and 7.5 (inclusive). All adverse events were documented; safety lab consisted of serum transaminases (monthly for 3 months and every 3 months thereafter) and hematology (CBC and differential every 6 months) after the start of treatment. The study was approved by the hospital ethics committee, and all patients gave informed consent.

Question: For `Nc1nc2ccc(OC(F)(F)F)cc2s1` [riluzole, (6-trifluoromethoxy)-2-benzothiazolamine)], which “Medically severe adverse effects” value (14 patients who took medication for over three months) is on record?
Answer: not observed

Question: And the “Patients who needed intermittent reduction in dosage of study drug” value (of 16 patients, riluzole 2×50 mg daily)?
Answer: Five

Question: What about the “Patients who discontinued treatment because of side effects” value (of 16 patients, headache in one, increase in spasticity in the other) of the same molecule?
Answer: Two
